For one assay, the target named is T1, Ag hmg AChE (Anopheles gambiae, UniProt Q869C3).
T1 construct: To prepare the Ag homogenate (Ag hmg) 10 Anopheles gambiae mosquitoes were combined; from tissue; host or cells: whole Anopheles gambiae mosquitoes, crude homogenate supernatant
The assay can be described thus: Ellman AChE inhibition assay, Anopheles gambiae homogenate (Ag hmg). It counts as biochemical. The settings on record: for IC50: pH 7.8, 10 min preincubation; for IC50 ratio (hAChE/Ag hmg): selectivity, values in parenthesis. In general terms: DTNB colorimetry detects thiols as they appear.

The target of a further assay is T2, hAChE (Homo sapiens, UniProt P22303).
T2 construct: purchased Sigma C1682
Kind of assay: Ellman AChE inhibition assay, recombinant hAChE. It counts as biochemical.

Assay [1] relates to Ag ace-1S. The assay can be described thus: biochemical. The settings on record: selectivity, values in parenthesis. Also on record: species or system Anopheles gambiae.
For assay [2], the target named is T3, Ag ace-1S (Anopheles gambiae, UniProt Q869C3).
T3 construct: encoding the entire wild type AgAChE protein (ace1, 737 amino acids); made in house; host or cells: Drosophila S2 cells (stably transfected, pMT/V5-His vector), clarified cell lysate
Kind of assay: biochemical.

In the next assay the test system is Anopheles gambiae. The assay can be described thus: Live mosquito contact toxicity, WHO filter paper assay. It counts as in vivo. The settings on record: for Live Mosquito Contact Toxicity MC for 100% lethality at 24 hr: 1 hr exposure to treated filter paper.
The target of the next assay is T4, Md hmg AChE (Musca domestica, UniProt Q7YWJ9).
T4 construct: Comparison of Ag homogenate and Md head; host or cells: housefly head homogenate

The next assay deals with T5, bovine AChE (Bos taurus, UniProt P23795).
T5 sequence (P23795 31-613): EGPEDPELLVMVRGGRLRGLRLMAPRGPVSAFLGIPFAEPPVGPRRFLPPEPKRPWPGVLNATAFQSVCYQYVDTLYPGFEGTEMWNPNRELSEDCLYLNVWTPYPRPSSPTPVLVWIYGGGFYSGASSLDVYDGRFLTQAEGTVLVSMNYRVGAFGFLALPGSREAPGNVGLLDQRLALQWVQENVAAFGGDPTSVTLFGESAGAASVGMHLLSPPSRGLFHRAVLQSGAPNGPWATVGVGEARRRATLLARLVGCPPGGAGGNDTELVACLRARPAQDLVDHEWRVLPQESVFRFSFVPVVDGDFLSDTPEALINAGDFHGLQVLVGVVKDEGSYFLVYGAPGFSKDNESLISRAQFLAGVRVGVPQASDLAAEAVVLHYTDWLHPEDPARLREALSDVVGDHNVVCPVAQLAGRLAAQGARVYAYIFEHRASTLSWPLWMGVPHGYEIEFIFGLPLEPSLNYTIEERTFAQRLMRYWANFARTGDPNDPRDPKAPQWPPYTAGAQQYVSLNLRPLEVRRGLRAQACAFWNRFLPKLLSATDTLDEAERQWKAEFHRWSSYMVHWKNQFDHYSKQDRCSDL
The settings on record: read-out: potency at bovine AChE; Kohn 1965; cited from earlier work.

The mark [3] stands for this setting: WT Anopheles gambiae homogenate, read-out: Ag WT hmg IC50.
Setting [4] is: pH 7.8, 10 min preincubation, read-out: hAChE recomb. IC50.
Where [5] appears, read: Ag WT hmg IC50, WT Anopheles gambiae homogenate.
The mark [6] stands for this setting: read-out: Md WT hmg IC50; Musca domestica head homogenate; data from Metcalf / Kolbezen; cited from earlier work.
Where [7] appears, read: Musca domestica head homogenate; data from Metcalf / Kolbezen; read-out: Md WT hmg IC50; cited from earlier work.

Read-outs that look alike come from different tables or passages of the source.

T2 sequence (P22303 32-614): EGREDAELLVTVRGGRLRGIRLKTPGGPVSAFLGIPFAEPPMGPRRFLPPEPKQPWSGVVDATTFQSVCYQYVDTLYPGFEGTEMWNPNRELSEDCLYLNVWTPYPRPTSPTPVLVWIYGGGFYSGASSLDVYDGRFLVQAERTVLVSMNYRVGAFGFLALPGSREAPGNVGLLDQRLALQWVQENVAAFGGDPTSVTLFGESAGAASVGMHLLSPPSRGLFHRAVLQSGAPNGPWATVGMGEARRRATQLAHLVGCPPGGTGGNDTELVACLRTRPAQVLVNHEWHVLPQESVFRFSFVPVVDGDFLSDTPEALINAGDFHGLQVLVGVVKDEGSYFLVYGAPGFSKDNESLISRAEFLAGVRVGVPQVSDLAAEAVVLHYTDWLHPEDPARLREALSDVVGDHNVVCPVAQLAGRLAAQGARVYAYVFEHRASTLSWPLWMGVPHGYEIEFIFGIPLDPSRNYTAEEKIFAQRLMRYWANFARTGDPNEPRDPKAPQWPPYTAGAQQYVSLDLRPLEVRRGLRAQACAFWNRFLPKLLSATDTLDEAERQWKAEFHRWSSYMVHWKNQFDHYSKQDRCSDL
T1 sequence (Q869C3 39-737): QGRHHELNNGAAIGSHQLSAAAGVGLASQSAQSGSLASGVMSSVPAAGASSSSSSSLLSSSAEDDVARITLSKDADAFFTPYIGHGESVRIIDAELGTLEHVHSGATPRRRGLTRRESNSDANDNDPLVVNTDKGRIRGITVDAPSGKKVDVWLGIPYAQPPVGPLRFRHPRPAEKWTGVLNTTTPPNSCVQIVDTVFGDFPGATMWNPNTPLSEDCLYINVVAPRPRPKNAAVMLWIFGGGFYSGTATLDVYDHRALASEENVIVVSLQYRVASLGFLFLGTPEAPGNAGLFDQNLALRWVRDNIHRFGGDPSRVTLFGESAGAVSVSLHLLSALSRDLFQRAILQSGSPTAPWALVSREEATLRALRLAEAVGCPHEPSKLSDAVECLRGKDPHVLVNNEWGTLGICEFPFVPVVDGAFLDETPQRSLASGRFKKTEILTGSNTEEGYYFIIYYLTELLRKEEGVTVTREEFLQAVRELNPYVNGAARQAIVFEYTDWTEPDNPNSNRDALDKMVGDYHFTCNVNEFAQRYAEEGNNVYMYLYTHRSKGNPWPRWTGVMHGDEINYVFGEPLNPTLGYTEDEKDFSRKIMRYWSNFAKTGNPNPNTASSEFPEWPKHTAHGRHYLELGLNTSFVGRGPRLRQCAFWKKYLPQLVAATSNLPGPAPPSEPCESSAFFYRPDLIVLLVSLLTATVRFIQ
T3 sequence (Q869C3 39-737): as above
T4 sequence (Q7YWJ9 1-692): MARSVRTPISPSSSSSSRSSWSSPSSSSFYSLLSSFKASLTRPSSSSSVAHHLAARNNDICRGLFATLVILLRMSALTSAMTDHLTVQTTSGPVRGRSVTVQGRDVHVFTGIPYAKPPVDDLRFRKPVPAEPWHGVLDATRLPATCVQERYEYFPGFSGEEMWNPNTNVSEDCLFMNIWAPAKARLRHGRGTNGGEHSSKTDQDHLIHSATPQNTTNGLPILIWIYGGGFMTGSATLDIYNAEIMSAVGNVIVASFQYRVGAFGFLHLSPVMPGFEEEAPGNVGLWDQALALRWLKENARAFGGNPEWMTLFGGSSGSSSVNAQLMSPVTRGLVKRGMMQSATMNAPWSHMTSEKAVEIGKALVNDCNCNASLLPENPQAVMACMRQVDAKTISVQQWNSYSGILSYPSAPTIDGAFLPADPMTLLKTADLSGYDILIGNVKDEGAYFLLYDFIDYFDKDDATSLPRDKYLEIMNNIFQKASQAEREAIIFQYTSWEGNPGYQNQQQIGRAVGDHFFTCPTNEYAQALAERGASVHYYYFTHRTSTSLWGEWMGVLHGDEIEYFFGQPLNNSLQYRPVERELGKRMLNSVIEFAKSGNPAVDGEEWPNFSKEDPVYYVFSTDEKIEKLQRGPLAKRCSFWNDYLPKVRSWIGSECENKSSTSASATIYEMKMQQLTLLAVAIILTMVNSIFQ

On to “2-isopropylphenyl-N-methylcarbamate [Compound 22b]”, for which the IC50 at Ag hmg AChE (setting [3]) turned out to be 507 nM; at hAChE (setting [4]) it was 4540 nM; at Ag ace-1S [2] (recombinant Anopheles gambiae AChE, WT (susceptible) strain, read-out: Ag ace-1S IC50) it was 426 nM. The “IC50 ratio (hAChE/Ag hmg)” value on Ag hmg AChE was “(8.8x)”. Further, the “IC50 ratio (hAChE/Ag ace-1S)” value in the assay on Ag ace-1S [1] was “(11x)”. Moreover, the “Live Mosquito Contact Toxicity MC for 100% lethality at 24 hr” value in the assay with Anopheles gambiae was determined as 56 ug/cm^2.

As to `CNC(=O)Oc1cc(C)cc(C)c1` [Compound 10a], the IC50 on Ag hmg AChE (setting [5]) is 2780 nM; on hAChE it was 17400 nM; on Md hmg AChE (setting [6]) it was 6 µM; on Ag ace-1S [2], 1040 nM. The “IC50 ratio (hAChE/Ag hmg)” value at Ag hmg AChE is given as “(6.2x)”. The “IC50 ratio (hAChE/Ag ace-1S)” value with Ag ace-1S [1] was “(17x)”. In the assay with Anopheles gambiae, the “Live Mosquito Contact Toxicity MC for 100% lethality at 24 hr” value is 56 ug/cm^2.

`CNC(=O)Oc1cccc(-c2ccccc2)c1` [Compound 6a]: the IC50 against Ag hmg AChE (setting [5]) amounted to 18400 nM; on hAChE, 38900 nM; against Ag ace-1S [2], 12100 nM. The “IC50 ratio (hAChE/Ag hmg)” value at Ag hmg AChE was “(2.1x)”. Further, in the assay with Ag ace-1S [1], the “IC50 ratio (hAChE/Ag ace-1S)” value is recorded as “(3.2x)”. The “Live Mosquito Contact Toxicity MC for 100% lethality at 24 hr” value in the assay with Anopheles gambiae came to 56 ug/cm^2.

On to `CNC(=O)Oc1ccccc1C(C)(C)C` [Compound 23b, 2-tert-butylphenyl methylcarbamate], for which the values for the IC50 on Ag hmg AChE (setting [5]), at hAChE and on Ag ace-1S [2] were 79000 nM, above 100000 nM and 51700 nM, respectively. Further, the “IC50 ratio (hAChE/Ag hmg)” value on Ag hmg AChE is given as “(>1.3x)”. In the assay on Ag ace-1S [1], the “IC50 ratio (hAChE/Ag ace-1S)” value is recorded as “(1.9x)”. Further, the “Live Mosquito Contact Toxicity MC for 100% lethality at 24 hr” value in the assay with Anopheles gambiae came to 56 ug/cm^2.

As for `CNC(=O)Oc1cccc2ccccc12` [Carbaryl, reference compound], the IC50 on Ag hmg AChE (setting [3]) is 262 nM; at hAChE (setting [4]) it was 2840 nM; on Md hmg AChE (setting [7]), 0.9 µM; against Ag ace-1S [2], 515 nM.

`CCc1cccc(OC(=O)NC)c1` [Compound 5a]: the IC50 at Ag hmg AChE (setting [5]) is 630 nM; at hAChE, 2500 nM; on Md hmg AChE (setting [6]) it was 13 µM; on Ag ace-1S [2], 392 nM. Besides, the “IC50 ratio (hAChE/Ag hmg)” value at Ag hmg AChE is “(4.0) x”. Further, the “IC50 ratio (hAChE/Ag ace-1S)” value with Ag ace-1S [1] is recorded as “(6.4x)”. The “Live Mosquito Contact Toxicity MC for 100% lethality at 24 hr” value in the assay on Anopheles gambiae is 11 ug/cm^2.

In the case of `CNC(=O)Oc1cccc([Si](C)(C)C)c1` [Compound 2a, N-methyl 3-(trimethylsilyl)phenyl carbamate], the IC50 on Ag hmg AChE (setting [5]) is 5.6 nM; at hAChE, 532 nM; on Md hmg AChE (setting [6]), 0.7 µM; against Ag ace-1S [2], 4.1 nM. Besides, on Ag hmg AChE (more potent at Ag hmg AChE), the “difference in potency Ag hmg AChE vs Md hmg AChE” value is reported as 100 fold. The “IC50 ratio (hAChE/Ag hmg)” value on Ag hmg AChE is recorded as “(95x)”. In the assay on Ag ace-1S [1], the “IC50 ratio (hAChE/Ag ace-1S)” value is reported as “(130x)”. In the assay on Anopheles gambiae, the “Live Mosquito Contact Toxicity MC for 100% lethality at 24 hr” value stood at 5.6 ug/cm^2.

As to `CNC(=O)Oc1cc(C(C)(C)C)cc(C(C)(C)C)c1` [Compound 11a], the IC50 was 5320 nM on Ag hmg AChE (setting [5]), 5170 nM on hAChE, 0.078 µM on Md hmg AChE (setting [6]) and 2470 nM against Ag ace-1S [2]. Besides, the “IC50 ratio (hAChE/Ag hmg)” value at Ag hmg AChE is on record as “(1.0x)”. The “IC50 ratio (hAChE/Ag ace-1S)” value in the assay on Ag ace-1S [1] is reported as “(2.1x)”. Also, the “lethality at 24 h” value with Anopheles gambiae (at 11 ug/cm^2, 1 hr exposure) was “None at 11”.

`CNC(=O)Oc1cccc2c1OC(C)(C)O2` [Bendiocarb, reference compound]: the IC50 on Ag hmg AChE (setting [3]) turned out to be 65 nM; on hAChE (setting [4]) it was 270 nM; at Ag ace-1S [2], 142 nM. For the same compound, at Ag hmg AChE, the “IC50 ratio (hAChE/Ag hmg)” value is on record as “(4.1x)”. In addition, in the assay on Ag ace-1S [1], the “IC50 ratio (hAChE/Ag ace-1S)” value is given as “(1.9x)”. Further, the “Live Mosquito Contact Toxicity MC for 100% lethality at 24 hr” value in the assay on Anopheles gambiae is 0.55 ug/cm^2.

As to `CNC(=O)Oc1cccc(Cl)c1` [Compound 7a], the IC50 was 26000 nM on Ag hmg AChE (setting [5]), 86000 nM at hAChE, 50 µM at Md hmg AChE (setting [6]) and 16600 nM against Ag ace-1S [2]. The “IC50 ratio (hAChE/Ag hmg)” value at Ag hmg AChE is reported as “(3.3x)”. Moreover, the “IC50 ratio (hAChE/Ag ace-1S)” value with Ag ace-1S [1] is reported as “(5.2x)”. For the same compound, the “Live Mosquito Contact Toxicity MC for 100% lethality at 24 hr” value in the assay with Anopheles gambiae is on record as 56 ug/cm^2.

As to `CNC(=O)ON=C(C)SC` [Methomyl, reference compound], the IC50 is 716 nM on Ag hmg AChE (setting [3]), 626 nM on hAChE (setting [4]) and 1760 nM against Ag ace-1S [2]. Besides, the “IC50 ratio (hAChE/Ag hmg)” value on Ag hmg AChE was “(0.87x)”. Besides, the “IC50 ratio (hAChE/Ag ace-1S)” value in the assay with Ag ace-1S [1] is on record as “(0.36x)”. Also, the “Live Mosquito Contact Toxicity MC for 100% lethality at 24 hr” value with Anopheles gambiae was 2.7 ug/cm^2.

Take `CNC(=O)Oc1cccc(Br)c1` [Compound 8a]: the IC50 on Ag hmg AChE (setting [5]) was 24000 nM; at hAChE, above 100000 nM; at Md hmg AChE (setting [6]) it was 13 µM; at Ag ace-1S [2], 7610 nM. The “IC50 ratio (hAChE/Ag hmg)” value on Ag hmg AChE is “(>4.2x)”. The “IC50 ratio (hAChE/Ag ace-1S)” value in the assay with Ag ace-1S [1] is given as “(>13x)”. The “Live Mosquito Contact Toxicity MC for 100% lethality at 24 hr” value in the assay on Anopheles gambiae was determined as 11 ug/cm^2.

Take `CC[Si](C)(C)c1cccc(OC(=O)NC)c1` [Compound 3a, N-methyl 3-ethyldimethylsilylphenyl carbamate]: the IC50 turned out to be 2.7 nM against Ag hmg AChE (setting [5]), 285 nM at hAChE and 2.2 nM against Ag ace-1S [2]. The “IC50 ratio (hAChE/Ag hmg)” value on Ag hmg AChE is “(110x)”. For the same compound, the “IC50 ratio (hAChE/Ag ace-1S)” value with Ag ace-1S [1] is on record as “(130x)”. The “Live Mosquito Contact Toxicity MC for 100% lethality at 24 hr” value with Anopheles gambiae is on record as 11 ug/cm^2.

Take `CNC(=O)O/N=C/C(C)(C)SC` [Aldicarb, reference compound]: the IC50 was 4620 nM at Ag hmg AChE (setting [3]), 84 µM on Md hmg AChE (setting [7]) and 10900 nM on Ag ace-1S [2]. Moreover, the “Live Mosquito Contact Toxicity MC for 100% lethality at 24 hr” value with Anopheles gambiae stood at 0.55 ug/cm^2.

Regarding `CNC(=O)Oc1cccc(C(C)(C)C)c1` [Compound 1a, 3-tert-butylphenyl-N-methyl carbamate], the IC50 was 530 nM at bovine AChE, 265 nM on hAChE and 0.4 µM at Md hmg AChE (setting [6]). The “Live Mosquito Contact Toxicity MC for 100% lethality at 24 hr” value in the assay on Anopheles gambiae was determined as 1.1 ug/cm^2. In the assay with Anopheles gambiae (1 hr exposure, piperonyl butoxide 0.3 mg/mL), the “Live Mosquito Contact Toxicity MC for 100% lethality at 24 hr, with synergist” value stood at 0.28 ug/cm^2.

Regarding `CNC(=O)Oc1cccc(C(C)C)c1` [Compound 4a], the IC50 on Ag hmg AChE (setting [5]) is 27 nM; on Md hmg AChE (setting [6]), 0.34 µM; at Ag ace-1S [2], 12 nM.

Consider `CNC(=O)Oc1ccccc1OC(C)C` [Propoxur, reference compound], for which the IC50 at Ag hmg AChE (setting [5]) is 371 nM; at hAChE it was 444 nM; on Md hmg AChE (setting [6]) it was 0.67 µM; against Ag ace-1S [2], 213 nM. Besides, at Ag hmg AChE, the “IC50 ratio (hAChE/Ag hmg)” value is recorded as “(1.2x)”. Moreover, in the assay with Ag ace-1S [1], the “IC50 ratio (hAChE/Ag ace-1S)” value was “(2.1x)”. Further, in the assay on Anopheles gambiae, the “Live Mosquito Contact Toxicity MC for 100% lethality at 24 hr” value came out at 1.1 ug/cm^2.

Take `CNC(=O)Oc1cccc(I)c1` [Compound 9a]: the IC50 against Ag hmg AChE (setting [5]) was 5170 nM; at hAChE it was 67200 nM; on Md hmg AChE (setting [6]), 7 µM; against Ag ace-1S [2] it was 1820 nM. In addition, the “IC50 ratio (hAChE/Ag hmg)” value at Ag hmg AChE is on record as “(13x)”. Further, the “IC50 ratio (hAChE/Ag ace-1S)” value with Ag ace-1S [1] is recorded as “(37x)”. Further, in the assay on Anopheles gambiae, the “Live Mosquito Contact Toxicity MC for 100% lethality at 24 hr” value is recorded as 11 ug/cm^2.

Values taken from patent publication US8618162B2 (priority 2007, dated 2013).
